pKi: −log10 of the molar value.
Columns and labels:
[1] = target: T1, Kappa-type opioid receptor (Homo sapiens, UniProt P41145); test: Inhibition of [3H]U-69593 binding to human kappa opioid receptor expressed in CHO cells; format: cell-based
[2] = target: T2, Mu-type opioid receptor (Homo sapiens, UniProt P35372); test: Inhibition of [3H]DAMGO binding to human Mu opioid receptor expressed in CHO cells; format: cell-based
[3] = target: T3, Delta-type opioid receptor (Homo sapiens, UniProt P41143); test: Inhibition of [3H]C1-DPDPE binding to human delta opioid receptor expressed in CHO cells; format: cell-based
[4] = target: T2, Mu-type opioid receptor
Description: Antagonist potency towards human mu opioid receptor in [35S]GTP-gamma-S, assay

[5] = target: T3, Delta-type opioid receptor
Description: Antagonist potency towards human delta opioid receptor in [35S]GTP-gamma-S, assay

[6] = target: T1, Kappa-type opioid receptor
Description: Antagonist potency towards human kappa opioid receptor in [35S]GTP-gamma-S, assay

[7] = target: T2, Mu-type opioid receptor; remark: listed apart in the source
Description: Agonist potency towards human mu opioid receptor in [35S]GTP-gamma-S, assay

T3 sequence (P41143 whole entry): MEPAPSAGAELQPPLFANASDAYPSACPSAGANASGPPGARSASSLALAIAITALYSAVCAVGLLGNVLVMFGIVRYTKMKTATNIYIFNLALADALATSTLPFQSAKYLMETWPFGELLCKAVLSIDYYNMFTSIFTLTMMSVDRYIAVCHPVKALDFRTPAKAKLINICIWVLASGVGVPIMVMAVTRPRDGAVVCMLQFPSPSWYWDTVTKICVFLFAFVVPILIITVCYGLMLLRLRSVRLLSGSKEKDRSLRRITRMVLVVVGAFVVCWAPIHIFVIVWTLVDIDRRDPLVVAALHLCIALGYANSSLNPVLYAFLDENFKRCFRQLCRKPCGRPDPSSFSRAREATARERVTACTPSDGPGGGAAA
T1 sequence (P41145 whole entry): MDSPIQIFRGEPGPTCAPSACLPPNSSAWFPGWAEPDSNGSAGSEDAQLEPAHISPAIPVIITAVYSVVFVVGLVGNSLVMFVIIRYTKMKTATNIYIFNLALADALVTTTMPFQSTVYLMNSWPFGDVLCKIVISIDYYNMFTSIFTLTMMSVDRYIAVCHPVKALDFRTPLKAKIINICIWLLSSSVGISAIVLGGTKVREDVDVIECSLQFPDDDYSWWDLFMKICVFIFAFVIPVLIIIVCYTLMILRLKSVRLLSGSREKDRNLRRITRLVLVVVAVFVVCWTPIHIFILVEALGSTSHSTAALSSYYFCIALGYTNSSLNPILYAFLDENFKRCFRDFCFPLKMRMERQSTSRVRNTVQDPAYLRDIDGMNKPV
T2 sequence (P35372 whole entry): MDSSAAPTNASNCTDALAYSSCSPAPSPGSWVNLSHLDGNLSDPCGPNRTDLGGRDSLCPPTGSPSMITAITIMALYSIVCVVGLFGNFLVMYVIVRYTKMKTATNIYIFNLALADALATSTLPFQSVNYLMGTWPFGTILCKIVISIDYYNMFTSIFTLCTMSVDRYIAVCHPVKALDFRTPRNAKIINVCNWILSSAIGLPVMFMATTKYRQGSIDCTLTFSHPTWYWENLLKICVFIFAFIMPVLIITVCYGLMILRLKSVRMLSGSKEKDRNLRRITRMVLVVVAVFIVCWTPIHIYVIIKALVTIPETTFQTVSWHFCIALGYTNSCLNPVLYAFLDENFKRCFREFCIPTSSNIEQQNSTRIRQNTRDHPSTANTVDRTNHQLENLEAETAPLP

| Compound | pKi [1] | pKi [2] | pKi [3] | Ke [4] | Ke [5] | Ke [6] | Ke [7] |
| --- | --- | --- | --- | --- | --- | --- | --- |
| CN(C)C1CCc2ccc(O)cc2C1(C)C (configuration not stated) | 6.48 | 6.94 | 5.40 | – | – | – | – |
| CCCNC1CCc2ccc(O)cc2C1(C)C (configuration not stated) | 6.60 | 6.31 | < 5.00 | – | – | – | – |
| CCCN(C)C1CCc2ccc(O)cc2C1(C)C (configuration not stated) | 6.74 | 7.07 | 5.68 | – | – | – | – |
| C=CCN(CC=C)C1CCc2ccc(O)cc2C1(C)C (configuration not stated) | 7.25 | 6.98 | 6.17 | – | – | – | – |
| CC1(C)c2cc(O)ccc2CCC1N(C/C=C/c1ccccc1)C/C=C/c1ccccc1 (configuration not stated) | 5.90 | 6.57 | < 5.00 | – | – | – | – |
| CN(C/C=C/c1ccccc1)C1CCc2ccc(O)cc2C1(C)C (configuration not stated) | 6.68 | 7.40 | 6.23 | – | – | – | – |
| CO[C@H]1Cc2ccc(O)cc2C(C)(C)[C@@H]1NC/C=C/c1ccccc1 | 8.12 | 8.79 | 7.65 | 2.62 nM | 26.3 nM | 2.12 nM | – |
| CC1(C)c2cc(O)ccc2CCC1NCC1CC1 (configuration not stated) | 6.63 | 6.51 | 5.42 | – | – | – | – |
| CC1(C)c2cc(O)ccc2CCC1N(CC1CC1)CC1CC1 (configuration not stated) | 5.74 | 6.37 | 5.24 | – | – | – | – |
| Oc1ccc2c3c1O[C@H]1c4[nH]c5c(c4C[C@@]4(O)[C@@H](C2)N(CC2CC2)CC[C@]314)C[C@@]1(O)[C@H]2Cc3ccc(O)c4c3[C@@]1(CCN2CC1CC1)[C@H]5O4 | – | – | – | – | – | 0.03 nM | – |
| C=CCNC1CCc2ccc(O)cc2C1(C)C (configuration not stated) | 7.20 | 6.69 | 5.23 | – | – | – | – |
| CN(CC1CC1)C1CCc2ccc(O)cc2C1(C)C (configuration not stated) | 6.84 | 6.98 | 6.22 | – | – | – | – |
| CCCN(CCC)C1CCc2ccc(O)cc2C1(C)C (configuration not stated) | 6.26 | 6.32 | 5.57 | – | – | – | – |
| C=CCN(C)C1CCc2ccc(O)cc2C1(C)C (configuration not stated) | 6.58 | – | 5.65 | – | – | – | – |
| CO[C@H]1Cc2ccc(O)cc2C(C)(C)[C@@H]1N | 6.83 | 7.76 | 5.61 | – | – | 49.3 nM | 234 nM |
| CC1(C)c2cc(O)ccc2CCC1NC/C=C/c1ccccc1 (configuration not stated) | 7.08 | 7.97 | 6.33 | 67.7 nM | – | 42.7 nM | – |

Source: ChEMBL document CHEMBL1137216, “Identification of a new scaffold for opioid receptor antagonism based on the 2-amino-1,1-dimethyl-7-hydroxytetralin pharmacophore” (J Med Chem, 2004)
